Assay results: patent publication US20230278972A1, “SUBSTITUTED HALOALKYL SULFONANILIDE HERBICIDES” (FMC Corporation, priority 2020, published 2023)

What was measured:
Type in all cases: in vivo
[1] = tested on: barnyardgrass (Echinochloa crus-galli); experiment: Test A postemergence, barnyardgrass; conditions: Postemergence, 0 to 100 scale (0 no effect, 100 complete control); for Barnyardgrass plant response rating: 500 g ai/ha, visual injury vs untreated controls after approx. 10 days
Method in brief: (§1)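 Seeds are sown in loam mixed with sand and sprayed on the soil surface right after planting for the preemergence test. Postemergence pots are sprayed once seedlings reach 2 to 10 cm at the one- to two-leaf stage. The same surfactant-containing, non-phytotoxic solvent formulation serves both.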

[2] = tested on: ragweed (common ragweed, Ambrosia artemisiifolia); experiment: Test A postemergence, ragweed; conditions: Postemergence, 0 to 100 scale (0 no effect, 100 complete control); for Ragweed plant response rating: 500 g ai/ha, visual injury vs untreated controls after approx. 10 days
Method in brief: (§2)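 Postemergence ratings come from foliar sprays onto one- to two-leaf plants of 2 to 10 cm grown in loam/sand; preemergence ratings come from a directed spray onto the soil of newly seeded pots. Formulation was a surfactant-containing non-phytotoxic solvent blend.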

[3] = tested on: barnyardgrass (Echinochloa crus-galli); experiment: Test A preemergence, barnyardgrass; conditions: Preemergence; for Barnyardgrass plant response rating: 125 g ai/ha, visual injury on 0 to 100 scale (0 no effect, 100 complete control), approximately 10 days; for Plant response rating, Barnyardgrass: 0 to 100 scale (0 no effect, 100 complete control)
Method in brief: as §2

[4] = tested on: pigweed (Amaranthus retroflexus); experiment: Test A preemergence, pigweed; conditions: for Pigweed plant response rating: 125 g ai/ha, visual injury on 0 to 100 scale (0 no effect, 100 complete control), approximately 10 days; for Plant response rating, Pigweed: 0 to 100 scale (0 no effect, 100 complete control)
Method in brief: as §1

[5] = tested on: Foxtail, Giant (giant foxtail, Setaria faberi); experiment: Test A preemergence, Foxtail, Giant; conditions: Preemergence; for Foxtail, Giant plant response rating: 125 g ai/ha, visual injury on 0 to 100 scale (0 no effect, 100 complete control), approximately 10 days; for Plant response rating, Foxtail, Giant: 0 to 100 scale (0 no effect, 100 complete control)
Method in brief: as §2

kochia (Bassia scoparia) [6] = experiment: Test A preemergence, kochia; conditions: Preemergence; for Kochia plant response rating: 125 g ai/ha, visual injury on 0 to 100 scale (0 no effect, 100 complete control), approximately 10 days; for Plant response rating, Kochia: 0 to 100 scale (0 no effect, 100 complete control)
Method in brief: as §2

[7] = tested on: pigweed (Amaranthus retroflexus); experiment: Test A postemergence, pigweed; conditions: Postemergence, 0 to 100 scale (0 no effect, 100 complete control); for Pigweed plant response rating: 500 g ai/ha, visual injury vs untreated controls after approx. 10 days
Method in brief: as §2

[8] = tested on: Ryegrass, Italian (Italian ryegrass, Lolium multiflorum); experiment: Test A postemergence, Ryegrass, Italian; conditions: Postemergence, 0 to 100 scale (0 no effect, 100 complete control); for Ryegrass, Italian plant response rating: 500 g ai/ha, visual injury vs untreated controls after approx. 10 days
Method in brief: as §2

[9] = tested on: wheat (Triticum aestivum); experiment: Test A postemergence, wheat; conditions: Postemergence, 0 to 100 scale (0 no effect, 100 complete control); for Wheat plant response rating: 500 g ai/ha, visual injury vs untreated controls after approx. 10 days
Method in brief: as §1

[10] = tested on: galium (catchweed bedstraw, Galium aparine); experiment: Test A postemergence, galium; conditions: Postemergence, 0 to 100 scale (0 no effect, 100 complete control); for Galium plant response rating: 500 g ai/ha, visual injury vs untreated controls after approx. 10 days
Method in brief: as §1

corn (Zea mays) = experiment: Test A postemergence, corn; conditions: Postemergence, 0 to 100 scale (0 no effect, 100 complete control); for Corn plant response rating: 500 g ai/ha, visual injury vs untreated controls after approx. 10 days
Method in brief: as §2

kochia (Bassia scoparia) [11] = experiment: Test A postemergence, kochia; conditions: Postemergence, 0 to 100 scale (0 no effect, 100 complete control); for Kochia plant response rating: 500 g ai/ha, visual injury vs untreated controls after approx. 10 days
Method in brief: as §2

[12] = tested on: Foxtail, Giant (giant foxtail, Setaria faberi); experiment: Test A postemergence, Foxtail, Giant; conditions: Postemergence, 0 to 100 scale (0 no effect, 100 complete control); for Foxtail, Giant plant response rating: 500 g ai/ha, visual injury vs untreated controls after approx. 10 days
Method in brief: as §2

[13] = tested on: Ryegrass, Italian (Italian ryegrass, Lolium multiflorum); experiment: Test A preemergence, Ryegrass, Italian; conditions: Preemergence; for Ryegrass, Italian plant response rating: 125 g ai/ha, visual injury on 0 to 100 scale (0 no effect, 100 complete control), approximately 10 days; for Plant response rating, Ryegrass, Italian: 0 to 100 scale (0 no effect, 100 complete control)
Method in brief: as §2

[14] = tested on: ragweed (common ragweed, Ambrosia artemisiifolia); experiment: Test A preemergence, ragweed; conditions: Preemergence; for Ragweed plant response rating: 125 g ai/ha, visual injury on 0 to 100 scale (0 no effect, 100 complete control), approximately 10 days; for Plant response rating, Ragweed: 0 to 100 scale (0 no effect, 100 complete control)
Method in brief: as §2

[15] = tested on: blackgrass (Alopecurus myosuroides); experiment: Test A postemergence, blackgrass; conditions: Postemergence, 0 to 100 scale (0 no effect, 100 complete control); for Blackgrass plant response rating: 500 g ai/ha, visual injury vs untreated controls after approx. 10 days
Method in brief: as §2

[16] = 125 g ai/ha, visual injury approx. 10 days
[17] = 31 g ai/ha, visual injury, approx. 10 days

Cc1cc(C)c(C(=O)N(C)CC2CC2)cc1NS(=O)(=O)C(F)(F)F [Compound 107]
10: Plant response rating, Foxtail, Giant [12, 16]
90: Barnyardgrass plant response rating [1] | Ragweed plant response rating [2] | Barnyardgrass plant response rating [3] | Plant response rating, Pigweed ([4]; 500 g ai/ha) | Plant response rating, Galium [10, 16] | Galium plant response rating [10] | Plant response rating, Ryegrass, Italian ([13]; 500 g ai/ha)
50: Plant response rating, Kochia (kochia (Bassia scoparia) [6]; 500 g ai/ha) | Plant response rating, Pigweed [7, 16] | Foxtail, Giant plant response rating [12] | Ragweed plant response rating [14]
60: Foxtail, Giant plant response rating [5] | Pigweed plant response rating [7] | Ryegrass, Italian plant response rating [13]
70: Plant response rating, Barnyardgrass [1, 16] | Plant response rating, Ragweed [2, 16]
40: Wheat plant response rating [9] | Kochia plant response rating (kochia (Bassia scoparia) [11])
20: Plant response rating, Kochia (kochia (Bassia scoparia) [11]; [16])
30: Ryegrass, Italian plant response rating [8] | Blackgrass plant response rating [15]
100: Plant response rating, Barnyardgrass ([3]; 500 g ai/ha) | Plant response rating, Foxtail, Giant ([5]; 500 g ai/ha)
0: Kochia plant response rating (kochia (Bassia scoparia) [6]) | Plant response rating, Ryegrass, Italian [8, 16] | Plant response rating, Wheat [9, 16] | Plant response rating, Corn (corn (Zea mays); [16]) | Plant response rating, Blackgrass [15, 16]
80: Pigweed plant response rating [4] | Corn plant response rating (corn (Zea mays)) | Plant response rating, Ragweed ([14]; 500 g ai/ha)

Cc1cc(C)c(-n2nccc(Cl)c2=O)cc1NS(=O)(=O)C(F)(F)F [Compound 82]
40: Barnyardgrass plant response rating [3] | Pigweed plant response rating [7] | Corn plant response rating (corn (Zea mays)) | Plant response rating, Ryegrass, Italian ([13]; 500 g ai/ha)
50: Foxtail, Giant plant response rating [12]
70: Kochia plant response rating (kochia (Bassia scoparia) [6])
10: Galium plant response rating [10]
80: Plant response rating, Barnyardgrass ([3]; 500 g ai/ha) | Plant response rating, Pigweed ([4]; 500 g ai/ha)
90: Pigweed plant response rating [4] | Plant response rating, Kochia (kochia (Bassia scoparia) [6]; 500 g ai/ha)
20: Barnyardgrass plant response rating [1] | Plant response rating, Galium [10, 16] | Plant response rating, Foxtail, Giant [12, 16] | Ryegrass, Italian plant response rating [13] | Plant response rating, Ragweed ([14]; 500 g ai/ha)
60: Plant response rating, Barnyardgrass [1, 16] | Plant response rating, Foxtail, Giant ([5]; 500 g ai/ha)
30: Ragweed plant response rating [2]
0: Plant response rating, Ragweed [2, 16] | Foxtail, Giant plant response rating [5] | Plant response rating, Pigweed [7, 16] | Plant response rating, Ryegrass, Italian [8, 16] | Ryegrass, Italian plant response rating [8] | Plant response rating, Wheat [9, 16] | Wheat plant response rating [9] | Plant response rating, Corn (corn (Zea mays); [16]) | Plant response rating, Kochia (kochia (Bassia scoparia) [11]; [16]) | Kochia plant response rating (kochia (Bassia scoparia) [11]) | Ragweed plant response rating [14] | Plant response rating, Blackgrass [15, 16] | Blackgrass plant response rating [15]

COC1CCCN(C(=O)c2cc(N(C(=O)C(C)C)S(=O)(=O)C(F)(F)F)c(C)cc2C)C1 (stereo not drawn) [Compound 91]
50: Ryegrass, Italian plant response rating [13]
20: Plant response rating, Foxtail, Giant [5, 17] | Ragweed plant response rating [14]
90: Barnyardgrass plant response rating [3]
10: Plant response rating, Ryegrass, Italian [8, 16] | Plant response rating, Wheat ([9]; 31 g ai/ha) | Plant response rating, Kochia (kochia (Bassia scoparia) [11]; 31 g ai/ha) | Plant response rating, Kochia (kochia (Bassia scoparia) [11]; [16]) | Plant response rating, Foxtail, Giant [12, 16]
60: Plant response rating, Pigweed [4, 17] | Kochia plant response rating (kochia (Bassia scoparia) [6]) | Plant response rating, Wheat [9, 16]
70: Plant response rating, Galium ([10]; 31 g ai/ha) | Plant response rating, Galium [10, 16]
100: Pigweed plant response rating [4] | Foxtail, Giant plant response rating [5]
0: Plant response rating, Barnyardgrass ([1]; 31 g ai/ha) | Plant response rating, Barnyardgrass [1, 16] | Plant response rating, Ragweed ([2]; 31 g ai/ha) | Plant response rating, Barnyardgrass [3, 17] | Plant response rating, Kochia (kochia (Bassia scoparia) [6]; [17]) | Plant response rating, Pigweed ([7]; 31 g ai/ha) | Plant response rating, Ryegrass, Italian ([8]; 31 g ai/ha) | Plant response rating, Corn (corn (Zea mays); 31 g ai/ha) | Plant response rating, Corn (corn (Zea mays); [16]) | Plant response rating, Foxtail, Giant ([12]; 31 g ai/ha) | Plant response rating, Ragweed [14, 17] | Plant response rating, Blackgrass ([15]; 31 g ai/ha) | Plant response rating, Blackgrass [15, 16]
30: Plant response rating, Ryegrass, Italian [13, 17]
40: Plant response rating, Ragweed [2, 16] | Plant response rating, Pigweed [7, 16]
